Laboratory results reported in PubChem BioAssay AID1963832 (Molecular Pharmacology Branch, DTP, NCI, 2024).

System: 885724-159-R-J1-PDC complex spheroid viability
Assay: Anticancer human tumor 885724-159-R-J1-PDC patient-derived pancreatic adenocarcinoma cell line growth inhibition [POLQ]
Details: for IC50: curve of first compound; for viability, T/C: stronger effect = lower value
Procedure, shortened: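 Patient-derived tumour cells were co-cultured with HUVEC and mesenchymal stem cells as multicellular spheroids at 37 °C. They were treated with POLQ inhibitors (novobiocin, ART-558, RP6685) alone or combined with other agents. Top concentrations were at or near clinical Cmax (otherwise 10 microM; SN-38 at 1 microM), decreasing in half-log steps.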

[1] = second compound 0.0316 µM, first compound 0.0316 µM
[2] = second compound 0.0316 µM, first compound 0.1 µM
[3] = second compound 0.0316 µM, first compound 0.316 µM
[4] = second compound 0.0316 µM, first compound 1 µM
[5] = second compound 0.0316 µM, first compound 3.16 µM
[6] = second compound 0.0316 µM, first compound 10 µM
[7] = second compound 0.1 µM, first compound 0.0316 µM
[8] = second compound 0.1 µM, first compound 0.1 µM
[9] = second compound 0.1 µM, first compound 0.316 µM
[10] = second compound 0.1 µM, first compound 1 µM
[11] = second compound 0.1 µM, first compound 3.16 µM
[12] = second compound 0.1 µM, first compound 10 µM
[13] = second compound 0.316 µM, first compound 0.0316 µM
[14] = second compound 0.316 µM, first compound 0.1 µM
[15] = second compound 0.316 µM, first compound 0.316 µM
[16] = second compound 0.316 µM, first compound 1 µM
[17] = second compound 0.316 µM, first compound 3.16 µM
[18] = second compound 0.316 µM, first compound 10 µM
[19] = second compound 1 µM, first compound 0.0316 µM
[20] = second compound 1 µM, first compound 0.1 µM
[21] = second compound 1 µM, first compound 0.316 µM
[22] = second compound 1 µM, first compound 1 µM
[23] = second compound 1 µM, first compound 3.16 µM
[24] = second compound 1 µM, first compound 10 µM
[25] = second compound 3.16 µM, first compound 0.0316 µM
[26] = second compound 3.16 µM, first compound 0.1 µM
[27] = second compound 3.16 µM, first compound 0.316 µM
[28] = second compound 3.16 µM, first compound 1 µM
[29] = second compound 3.16 µM, first compound 3.16 µM
[30] = second compound 3.16 µM, first compound 10 µM
[31] = second compound 10 µM, first compound 0.0316 µM
[32] = second compound 10 µM, first compound 0.1 µM
[33] = second compound 10 µM, first compound 0.316 µM
[34] = second compound 10 µM, first compound 1 µM
[35] = second compound 10 µM, first compound 3.16 µM
[36] = second compound 10 µM, first compound 10 µM
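Also: spheroids exposed to compounds for 7 days.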

C#Cc1c(F)ccc2cc(O)cc(-c3ncc4c(N5CC6CCC(C5)N6)nc(OCC56CCCN5CC(F)C6)nc4c3F)c12 (stereo not drawn) + Cc1cccc(N(C)C(=O)C2C(O)CCN2c2nc(C)cc(C(F)(F)F)c2C#N)c1
IC50 (second compound 0.0316 µM): 2.45 µM
IC50 (second compound 0.1 µM): 2.33 µM
IC50 (second compound 0.316 µM): 2.14 µM
IC50 (second compound 1 µM): 2.17 µM
IC50 (second compound 3.16 µM): 1.93 µM
IC50 (second compound 10 µM): 1.47 µM
viability, T/C [1]: 98.6%
viability, T/C [2]: 92.6%
viability, T/C [3]: 78.5%
viability, T/C [4]: 72%
viability, T/C [5]: 42.4%
viability, T/C [6]: 19.9%
viability, T/C [7]: 101%
viability, T/C [8]: 93.1%
viability, T/C [9]: 83.9%
viability, T/C [10]: 68.8%
viability, T/C [11]: 42.7%
viability, T/C [12]: 18.4%
viability, T/C [13]: 95.5%
viability, T/C [14]: 87.5%
viability, T/C [15]: 95.4%
viability, T/C [16]: 70%
viability, T/C [17]: 39.7%
viability, T/C [18]: 20.6%
viability, T/C [19]: 93.3%
viability, T/C [20]: 101%
viability, T/C [21]: 79.7%
viability, T/C [22]: 64.5%
viability, T/C [23]: 44.2%
viability, T/C [24]: 21.2%
viability, T/C [25]: 92.8%
viability, T/C [26]: 94.2%
viability, T/C [27]: 80.4%
viability, T/C [28]: 62.8%
viability, T/C [29]: 40.7%
viability, T/C [30]: 19%
viability, T/C [31]: 93.8%
viability, T/C [32]: 81%
viability, T/C [33]: 80.3%
viability, T/C [34]: 55.3%
viability, T/C [35]: 36.2%
viability, T/C [36]: 19.9%

C=CC(=O)N1CCN(c2nc(=O)n(-c3c(C)ccnc3C(C)C)c3nc(-c4c(O)cccc4F)c(F)cc23)C(C)C1 (stereo not drawn) + Cc1cccc(N(C)C(=O)C2C(O)CCN2c2nc(C)cc(C(F)(F)F)c2C#N)c1
IC50 (second compound 0.0316 µM): > 10 µM
IC50 (second compound 0.1 µM): > 10 µM
IC50 (second compound 0.316 µM): > 10 µM
IC50 (second compound 1 µM): > 10 µM
IC50 (second compound 3.16 µM): > 10 µM
IC50 (second compound 10 µM): > 10 µM
viability, T/C [1]: 105%
viability, T/C [2]: 90.7%
viability, T/C [3]: 99.5%
viability, T/C [4]: 97.8%
viability, T/C [5]: 104%
viability, T/C [6]: 96.4%
viability, T/C [7]: 95.4%
viability, T/C [8]: 86.6%
viability, T/C [9]: 99.1%
viability, T/C [10]: 96.8%
viability, T/C [11]: 108%
viability, T/C [12]: 88.7%
viability, T/C [13]: 98.6%
viability, T/C [14]: 95%
viability, T/C [15]: 91.3%
viability, T/C [16]: 105%
viability, T/C [17]: 105%
viability, T/C [18]: 88%
viability, T/C [19]: 94.8%
viability, T/C [20]: 92.1%
viability, T/C [21]: 95.3%
viability, T/C [22]: 108%
viability, T/C [23]: 103%
viability, T/C [24]: 92.3%
viability, T/C [25]: 98.5%
viability, T/C [26]: 94.7%
viability, T/C [27]: 98.8%
viability, T/C [28]: 99.4%
viability, T/C [29]: 110%
viability, T/C [30]: 88.7%
viability, T/C [31]: 95.4%
viability, T/C [32]: 91.8%
viability, T/C [33]: 96.1%
viability, T/C [34]: 109%
viability, T/C [35]: 107%
viability, T/C [36]: 93.2%

CC1COCCN1c1cc(-c2ccnn2C)c2ccnc(-c3ccn[nH]3)c2n1 (stereo not drawn) + Cc1cccc(N(C)C(=O)C2C(O)CCN2c2nc(C)cc(C(F)(F)F)c2C#N)c1
IC50 (second compound 0.0316 µM): 0.35 µM
IC50 (second compound 0.1 µM): 0.631 µM
IC50 (second compound 0.316 µM): 0.364 µM
IC50 (second compound 1 µM): 0.467 µM
IC50 (second compound 3.16 µM): 0.576 µM
IC50 (second compound 10 µM): 0.441 µM
viability, T/C [1]: 85.6%
viability, T/C [2]: 61.2%
viability, T/C [3]: 52.3%
viability, T/C [4]: 42.6%
viability, T/C [5]: 45.5%
viability, T/C [6]: 39%
viability, T/C [7]: 87%
viability, T/C [8]: 66.2%
viability, T/C [9]: 54.2%
viability, T/C [10]: 47.5%
viability, T/C [11]: 44.7%
viability, T/C [12]: 36.1%
viability, T/C [13]: 89.3%
viability, T/C [14]: 61.5%
viability, T/C [15]: 51.5%
viability, T/C [16]: 47.2%
viability, T/C [17]: 40.6%
viability, T/C [18]: 41.4%
viability, T/C [19]: 82.9%
viability, T/C [20]: 65.1%
viability, T/C [21]: 50.2%
viability, T/C [22]: 47.4%
viability, T/C [23]: 41.9%
viability, T/C [24]: 38.3%
viability, T/C [25]: 77.8%
viability, T/C [26]: 63.2%
viability, T/C [27]: 51.9%
viability, T/C [28]: 47%
viability, T/C [29]: 46.5%
viability, T/C [30]: 37.8%
viability, T/C [31]: 86%
viability, T/C [32]: 58.5%
viability, T/C [33]: 50.4%
viability, T/C [34]: 53.3%
viability, T/C [35]: 49.6%
viability, T/C [36]: 40.2%

CC1COCCN1c1cc(C2(S(C)(=N)=O)CC2)nc(-c2ccnc3[nH]ccc23)n1 (stereo not drawn) + Cc1cccc(N(C)C(=O)C2C(O)CCN2c2nc(C)cc(C(F)(F)F)c2C#N)c1
IC50 (second compound 0.0316 µM): > 10 µM
IC50 (second compound 0.1 µM): > 10 µM
IC50 (second compound 0.316 µM): 9.04 µM
IC50 (second compound 1 µM): 5.33 µM
IC50 (second compound 3.16 µM): > 10 µM
IC50 (second compound 10 µM): > 10 µM
viability, T/C [1]: 105%
viability, T/C [2]: 97.3%
viability, T/C [3]: 89%
viability, T/C [4]: 72%
viability, T/C [5]: 58%
viability, T/C [6]: 51.7%
viability, T/C [7]: 103%
viability, T/C [8]: 94.1%
viability, T/C [9]: 97.9%
viability, T/C [10]: 65.4%
viability, T/C [11]: 55.2%
viability, T/C [12]: 53.8%
viability, T/C [13]: 108%
viability, T/C [14]: 102%
viability, T/C [15]: 92.5%
viability, T/C [16]: 72.9%
viability, T/C [17]: 55.9%
viability, T/C [18]: 49.7%
viability, T/C [19]: 109%
viability, T/C [20]: 93.6%
viability, T/C [21]: 97%
viability, T/C [22]: 71.8%
viability, T/C [23]: 52.3%
viability, T/C [24]: 47.2%
viability, T/C [25]: 98.5%
viability, T/C [26]: 95.6%
viability, T/C [27]: 92.8%
viability, T/C [28]: 73.8%
viability, T/C [29]: 51.7%
viability, T/C [30]: 51.3%
viability, T/C [31]: 92.2%
viability, T/C [32]: 97.2%
viability, T/C [33]: 91.5%
viability, T/C [34]: 68.2%
viability, T/C [35]: 56.4%
viability, T/C [36]: 50.4%
